EC50, IC50 and AC50 data for five molecules are collected here from ChEMBL document CHEMBL1201862, “PubChem BioAssay data set” (2004).

Active and inactive are the calls of the source. Where only a bound is given, the exact number is not on record here.

As usually defined, the EC50 is the concentration at which the effect is half-maximal. The term IC50 denotes the concentration at which inhibition is half-maximal. Usually AC50 stands for the concentration at which the activity in the assay is half-maximal.

For experiment [1], the target named is Potassium voltage-gated channel subfamily KQT member 2 (Rattus norvegicus, UniProt O88943). Briefly: Mode of action assay-Dose response assay for compounds that activate KCNQ2 potassium channels on automated patch clamp. [Related pubchem assays (depositor defined):AID2239, AID2258, AID2287, AID493113]. Type of experiment: functional.
Potassium voltage-gated channel subfamily KQT member 2, sequence (O88943 whole entry): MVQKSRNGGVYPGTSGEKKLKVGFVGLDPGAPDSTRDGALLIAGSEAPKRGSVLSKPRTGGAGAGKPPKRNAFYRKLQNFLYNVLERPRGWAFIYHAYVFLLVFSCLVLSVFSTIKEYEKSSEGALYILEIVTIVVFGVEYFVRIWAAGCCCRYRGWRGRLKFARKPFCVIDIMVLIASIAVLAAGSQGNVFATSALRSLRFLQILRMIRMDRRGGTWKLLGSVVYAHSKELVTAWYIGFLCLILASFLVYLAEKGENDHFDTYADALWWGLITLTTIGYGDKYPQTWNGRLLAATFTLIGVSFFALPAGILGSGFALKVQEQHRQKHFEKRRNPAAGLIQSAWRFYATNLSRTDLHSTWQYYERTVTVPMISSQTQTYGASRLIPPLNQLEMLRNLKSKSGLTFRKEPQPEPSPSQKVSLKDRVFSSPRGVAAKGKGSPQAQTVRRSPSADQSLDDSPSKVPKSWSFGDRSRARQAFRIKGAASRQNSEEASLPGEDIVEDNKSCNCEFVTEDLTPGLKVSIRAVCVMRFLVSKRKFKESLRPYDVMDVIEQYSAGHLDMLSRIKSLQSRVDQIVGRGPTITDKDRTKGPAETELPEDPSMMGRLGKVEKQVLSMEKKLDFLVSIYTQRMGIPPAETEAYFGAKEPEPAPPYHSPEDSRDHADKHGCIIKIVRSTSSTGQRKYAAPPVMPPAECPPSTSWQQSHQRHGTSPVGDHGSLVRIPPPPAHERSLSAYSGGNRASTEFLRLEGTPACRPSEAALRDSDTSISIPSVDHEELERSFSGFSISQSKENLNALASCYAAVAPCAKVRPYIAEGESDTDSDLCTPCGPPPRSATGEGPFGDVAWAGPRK
In experiment [2] the target is Potassium voltage-gated channel subfamily KQT member 4 (Homo sapiens, UniProt P56696). The experiment is described as follows: activation of KCNQ4 potassium current – automated patch clamp, CHO cells, selectivity assay for KCNQ2 activator project, dose response (AID 493043). It is filed as functional, cell-based. (In general: Patch clamp records ionic current or voltage across a cell membrane.)
Potassium voltage-gated channel subfamily KQT member 4, sequence (P56696 whole entry): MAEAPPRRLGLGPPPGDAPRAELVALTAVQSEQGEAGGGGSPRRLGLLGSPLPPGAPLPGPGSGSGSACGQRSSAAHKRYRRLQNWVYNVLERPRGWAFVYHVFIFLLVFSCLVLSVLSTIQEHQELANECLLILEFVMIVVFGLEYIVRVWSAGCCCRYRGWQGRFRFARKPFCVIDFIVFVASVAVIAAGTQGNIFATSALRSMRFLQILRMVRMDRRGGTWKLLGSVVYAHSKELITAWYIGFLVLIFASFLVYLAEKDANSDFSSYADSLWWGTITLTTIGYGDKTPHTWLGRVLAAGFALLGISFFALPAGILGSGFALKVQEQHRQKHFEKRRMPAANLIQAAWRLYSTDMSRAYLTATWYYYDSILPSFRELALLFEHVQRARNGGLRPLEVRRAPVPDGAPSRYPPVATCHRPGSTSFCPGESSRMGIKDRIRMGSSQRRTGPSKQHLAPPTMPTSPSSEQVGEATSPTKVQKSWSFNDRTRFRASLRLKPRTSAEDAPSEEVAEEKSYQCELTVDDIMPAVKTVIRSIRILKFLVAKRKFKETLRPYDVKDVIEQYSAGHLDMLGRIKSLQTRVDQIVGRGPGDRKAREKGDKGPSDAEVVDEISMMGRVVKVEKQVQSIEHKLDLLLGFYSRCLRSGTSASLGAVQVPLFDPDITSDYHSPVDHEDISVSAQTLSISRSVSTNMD

Experiment [3] deals with Potassium voltage-gated channel subfamily KQT member 2/member 3 (Rattus norvegicus, UniProt O88943+O88944). Briefly: Mode of action assay-Dose response assay for KCNQ2 activators in the KCNQ2/KCNQ3 co-expressing cells on automated patch clamp. [Related pubchem assays (depositor defined):AID2239, AID2258, AID2287]. It is filed as functional.
Potassium voltage-gated channel subfamily KQT member 2/member 3, sequence (O88943 whole entry): as the sequence (O88943 whole entry) above
Potassium voltage-gated channel subfamily KQT member 2/member 3, sequence (O88944 whole entry): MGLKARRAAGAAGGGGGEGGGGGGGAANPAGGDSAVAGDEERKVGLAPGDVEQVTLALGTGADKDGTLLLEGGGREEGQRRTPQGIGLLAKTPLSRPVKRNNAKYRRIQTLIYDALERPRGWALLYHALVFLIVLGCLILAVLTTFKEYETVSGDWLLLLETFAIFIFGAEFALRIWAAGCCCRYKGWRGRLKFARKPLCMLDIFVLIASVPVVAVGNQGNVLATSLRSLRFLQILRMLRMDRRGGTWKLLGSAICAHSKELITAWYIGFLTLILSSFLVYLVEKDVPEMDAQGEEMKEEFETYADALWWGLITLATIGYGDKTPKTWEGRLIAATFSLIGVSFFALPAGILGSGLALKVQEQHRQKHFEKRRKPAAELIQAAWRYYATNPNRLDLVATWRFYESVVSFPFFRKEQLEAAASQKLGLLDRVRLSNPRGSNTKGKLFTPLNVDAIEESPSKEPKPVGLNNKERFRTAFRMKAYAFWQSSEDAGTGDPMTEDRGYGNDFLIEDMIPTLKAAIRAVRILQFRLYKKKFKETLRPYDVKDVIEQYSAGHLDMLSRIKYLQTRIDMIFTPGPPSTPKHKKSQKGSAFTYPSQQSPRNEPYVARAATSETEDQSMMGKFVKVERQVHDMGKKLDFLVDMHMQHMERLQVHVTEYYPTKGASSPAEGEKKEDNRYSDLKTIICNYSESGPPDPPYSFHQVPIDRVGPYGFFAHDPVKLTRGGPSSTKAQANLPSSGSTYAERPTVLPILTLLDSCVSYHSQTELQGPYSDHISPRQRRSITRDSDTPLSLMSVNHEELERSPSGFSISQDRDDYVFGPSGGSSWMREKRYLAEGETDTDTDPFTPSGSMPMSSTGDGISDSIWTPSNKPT
Experiment [4] relates to BJ. The experiment is described as follows: BJ-TERT fibroblast viability loss – cell-based, RAS-independent, luminescence, dose response (AID 1933). It is filed as functional. The note with it: Homo sapiens.
A further experiment addresses Beta-galactosidase (Escherichia coli, UniProt Q8VNN2). Briefly: PubChem AID 485352. It is filed as functional.
Experiment [5] deals with T1, Heat shock factor protein 1 (Mus musculus, UniProt P38532).
T1 sequence (P38532 whole entry): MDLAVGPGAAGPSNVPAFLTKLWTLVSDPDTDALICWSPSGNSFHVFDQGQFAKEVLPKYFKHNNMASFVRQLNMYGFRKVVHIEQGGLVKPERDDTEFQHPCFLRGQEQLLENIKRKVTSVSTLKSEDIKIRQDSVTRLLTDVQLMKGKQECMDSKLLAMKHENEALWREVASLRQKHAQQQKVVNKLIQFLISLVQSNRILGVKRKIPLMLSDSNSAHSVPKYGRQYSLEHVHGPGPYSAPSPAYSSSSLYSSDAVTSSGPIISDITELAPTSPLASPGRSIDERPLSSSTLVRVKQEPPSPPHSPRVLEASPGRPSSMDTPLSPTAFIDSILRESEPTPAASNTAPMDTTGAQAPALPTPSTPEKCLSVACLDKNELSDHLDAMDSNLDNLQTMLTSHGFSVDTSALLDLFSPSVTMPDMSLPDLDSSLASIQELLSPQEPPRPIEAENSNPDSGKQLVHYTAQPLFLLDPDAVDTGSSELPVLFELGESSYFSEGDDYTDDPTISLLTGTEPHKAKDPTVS
Briefly: decrease of HSF1-responsive luciferase luminescence – cell-based, NIH3T3, dose retest, confirmation (AID 2382).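 Further: NIH3T3 fibroblasts with HSF1-driven luciferase reporter stressed by proteasome inhibitor MG132; luminescence from HSF1-driven luciferase expression after 8 hours of MG132 stress.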 It is filed as functional.

For experiment [6], the system named is BJ. The experiment is described as follows: cells. Type of experiment: functional, cell-based. The note with it: Homo sapiens.
Experiment [7] deals with Type-1 angiotensin II receptor (Homo sapiens, UniProt P30556). Briefly: antagonism of angiotensin II type 1 receptor – cell-based, uHTS hits, selectivity assay for APJ receptor antagonist project, dose response (AID 463214).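 Further: antagonist potency against angiotensin II stimulated AT1 response.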 Type of experiment: functional.
In experiment [8] the target is T2, Sphingosine 1-phosphate receptor 4 (Homo sapiens, UniProt O95977).
T2 sequence (O95977 whole entry): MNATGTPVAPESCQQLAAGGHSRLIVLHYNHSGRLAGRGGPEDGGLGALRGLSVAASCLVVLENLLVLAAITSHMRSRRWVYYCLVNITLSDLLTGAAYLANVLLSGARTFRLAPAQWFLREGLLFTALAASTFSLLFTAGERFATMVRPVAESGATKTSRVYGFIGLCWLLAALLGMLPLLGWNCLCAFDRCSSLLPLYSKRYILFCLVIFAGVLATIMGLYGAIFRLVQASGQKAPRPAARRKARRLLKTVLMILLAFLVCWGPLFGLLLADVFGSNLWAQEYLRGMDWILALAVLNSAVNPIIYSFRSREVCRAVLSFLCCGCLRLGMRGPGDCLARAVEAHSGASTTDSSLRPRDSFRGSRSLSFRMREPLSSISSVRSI
The experiment is described as follows: Late stage fluorescence dose response cell-based screening assay for antagonists of the Sphingosine 1-Phosphate Receptor 4 (S1P4). [Related pubchem assays: 1524 (Confirmation screen (S1P4 antagonists).), 1510 (Primary screen (S1P4 antagonists).), 1853 (Summary AID (S1P4 antagonists).), 1692 (Dose response screen (S1P4 antagonists).)]. Type of experiment: functional.

Experiment [9] has as its target T2, Sphingosine 1-phosphate receptor 4. The experiment is described as follows: Fluorescence dose response cell-based high throughput screening assay for antagonists of the Sphingosine 1-Phosphate Receptor 4 (S1P4). [Related pubchem assays: 1524 (Confirmation in triplicates.), 1510 (Primary screen.)]. It is filed as functional.
The test system of experiment [10] is BJ. Briefly: BJ-TERT-LT-ST fibroblast viability loss – cell-based, RAS-independent, luminescence, dose response (AID 1935).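 Further: BJ fibroblasts immortalized with TERT plus LT and ST oncogenes.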 To be noted: Homo sapiens. Type of experiment: functional.
Experiment [11] can be described thus: DRD fibroblast viability loss – cell-based, non-viral oncogenic, luminescence, dose response (AID 1934). Type of experiment: functional. The note with it: Homo sapiens.
Experiment [12] deals with Sphingosine 1-phosphate receptor 1 (Homo sapiens, UniProt P21453). It is filed as functional.
Sphingosine 1-phosphate receptor 1, sequence (P21453 whole entry, the tested form may be a part): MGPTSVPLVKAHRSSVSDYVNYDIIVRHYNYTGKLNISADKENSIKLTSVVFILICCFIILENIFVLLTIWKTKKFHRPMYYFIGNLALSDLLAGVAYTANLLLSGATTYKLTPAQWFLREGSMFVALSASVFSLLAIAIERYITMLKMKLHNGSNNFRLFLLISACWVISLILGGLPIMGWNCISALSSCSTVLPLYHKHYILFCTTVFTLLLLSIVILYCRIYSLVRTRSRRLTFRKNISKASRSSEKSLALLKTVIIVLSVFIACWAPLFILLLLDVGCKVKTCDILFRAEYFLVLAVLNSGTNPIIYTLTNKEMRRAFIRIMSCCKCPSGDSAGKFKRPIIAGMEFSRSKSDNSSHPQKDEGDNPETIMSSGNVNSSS
A further experiment deals with CHO. Briefly: CHO cell viability loss, potency – luminescence, cytotoxicity control for TLR9-MyD88 binding inhibitor project, dose response (AID 588339).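 Further: CHO cells stably coexpressing TLR9 and MyD88 fusions from primary screen; compound exposure lasted 48 hours before viability readout.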 It is filed as functional, cell-based, hamster. The note with it: Cricetulus griseus.
Experiment [13] concerns the target Heat shock protein HSP 90-alpha (Homo sapiens, UniProt P07900). Type of experiment: functional, organism-based.
Another experiment concerns the target Beta Lactamase (Pseudomonas aeruginosa, UniProt Q932Y6). The experiment is described as follows: BLA reporter interference, concentration series – BLA reporter cells, FRET fluorescence, artefact control for TLR9-MyD88 binding inhibitor project, dose response (AID 588341).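 Further: cell based assay in CHO-K1 cells stably expressing beta-lactamase.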 It is filed as cell-based.
The test system of experiment [14] is INS1. Briefly: INS-1E survival protection against cytokine death – cell-based, luminescence, retest, dose response (AID 449756).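 Further: cell death triggered by IL-1 beta plus TNF-alpha plus IFN-gamma mixture; protective hits raise ATP signal compared with cytokine alone wells.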 It is filed as functional. The note with it: Rattus norvegicus.
The next experiment deals with Hexokinase-1 (Homo sapiens, UniProt P19367). The experiment is described as follows: SAR analysis of small molecule inhibitors of hexokinase domain containing I (HKDC1) in the hexokinase 1 selectivity assay. [Related pubchem assays (depositor defined):AID493160, AID493190]. Type of experiment: functional.
Hexokinase-1, sequence (P19367 whole entry, the tested form may be a part): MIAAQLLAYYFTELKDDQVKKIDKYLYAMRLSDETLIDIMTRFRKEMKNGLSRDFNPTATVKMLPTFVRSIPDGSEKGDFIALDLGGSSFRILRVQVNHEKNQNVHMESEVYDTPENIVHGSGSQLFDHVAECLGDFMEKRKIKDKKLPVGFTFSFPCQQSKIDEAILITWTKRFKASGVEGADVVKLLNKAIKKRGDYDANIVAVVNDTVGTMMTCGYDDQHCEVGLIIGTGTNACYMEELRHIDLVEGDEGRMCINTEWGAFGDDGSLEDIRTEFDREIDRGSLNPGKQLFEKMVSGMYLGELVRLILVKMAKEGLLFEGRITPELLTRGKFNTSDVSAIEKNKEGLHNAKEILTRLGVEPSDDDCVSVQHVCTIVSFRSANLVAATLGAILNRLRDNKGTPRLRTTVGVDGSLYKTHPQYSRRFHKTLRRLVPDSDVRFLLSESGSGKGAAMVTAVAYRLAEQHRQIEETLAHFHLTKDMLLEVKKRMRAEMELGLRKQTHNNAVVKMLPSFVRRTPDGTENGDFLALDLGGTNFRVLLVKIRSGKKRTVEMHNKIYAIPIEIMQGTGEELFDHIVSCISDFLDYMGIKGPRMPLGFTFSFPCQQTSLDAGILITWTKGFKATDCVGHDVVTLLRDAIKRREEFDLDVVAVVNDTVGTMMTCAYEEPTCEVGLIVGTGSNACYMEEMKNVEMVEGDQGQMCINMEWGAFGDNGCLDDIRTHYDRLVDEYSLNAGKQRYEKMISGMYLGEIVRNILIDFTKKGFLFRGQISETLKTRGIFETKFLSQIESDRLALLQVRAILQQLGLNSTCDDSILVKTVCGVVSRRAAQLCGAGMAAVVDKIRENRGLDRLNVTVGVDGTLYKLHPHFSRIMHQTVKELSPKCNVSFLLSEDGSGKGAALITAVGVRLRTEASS
For another experiment, the target named is T3, Hexokinase HKDC1 (Homo sapiens, UniProt Q2TB90).
T3 sequence (Q2TB90 whole entry): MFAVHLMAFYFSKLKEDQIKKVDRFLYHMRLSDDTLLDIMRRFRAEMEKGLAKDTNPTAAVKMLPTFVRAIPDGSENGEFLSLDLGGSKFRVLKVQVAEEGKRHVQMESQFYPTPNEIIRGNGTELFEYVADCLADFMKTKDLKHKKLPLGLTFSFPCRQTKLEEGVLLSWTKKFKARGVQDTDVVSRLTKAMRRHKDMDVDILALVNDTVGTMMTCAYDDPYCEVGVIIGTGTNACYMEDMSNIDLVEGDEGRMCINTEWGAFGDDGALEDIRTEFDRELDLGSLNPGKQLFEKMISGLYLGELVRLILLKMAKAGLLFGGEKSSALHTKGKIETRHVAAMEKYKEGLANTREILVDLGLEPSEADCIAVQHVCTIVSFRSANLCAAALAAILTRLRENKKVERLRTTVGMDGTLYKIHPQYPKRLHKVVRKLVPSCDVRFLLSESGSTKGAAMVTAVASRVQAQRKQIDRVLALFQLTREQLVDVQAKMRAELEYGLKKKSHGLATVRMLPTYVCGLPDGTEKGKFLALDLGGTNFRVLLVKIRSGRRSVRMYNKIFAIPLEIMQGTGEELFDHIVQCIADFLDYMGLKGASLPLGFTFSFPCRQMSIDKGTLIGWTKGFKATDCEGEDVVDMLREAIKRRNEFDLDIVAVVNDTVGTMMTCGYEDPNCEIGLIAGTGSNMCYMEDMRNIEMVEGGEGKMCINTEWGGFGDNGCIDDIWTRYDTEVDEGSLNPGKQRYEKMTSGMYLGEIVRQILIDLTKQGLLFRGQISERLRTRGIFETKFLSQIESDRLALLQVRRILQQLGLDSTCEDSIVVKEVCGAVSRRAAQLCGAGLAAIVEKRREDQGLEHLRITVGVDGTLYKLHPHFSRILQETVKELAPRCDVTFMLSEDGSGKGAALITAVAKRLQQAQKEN
Briefly: SAR analysis of small molecule inhibitors of hexokinase domain containing I (HKDC1). [Related pubchem assays (depositor defined):AID493160, AID493190]. It is filed as functional.

The subject of experiment [15] is INS1. The experiment is described as follows: INS-1E mitochondrial potential rescue under cytokines – cell-based, JC-1 fluorescence ratio, dry powder, dose response (AID 488931). To be noted: Rattus norvegicus. Type of experiment: functional.
Experiment [16] deals with T4, Short transient receptor potential channel 4 (Mus musculus, UniProt Q9QUQ5).
T4 sequence (Q9QUQ5 whole entry): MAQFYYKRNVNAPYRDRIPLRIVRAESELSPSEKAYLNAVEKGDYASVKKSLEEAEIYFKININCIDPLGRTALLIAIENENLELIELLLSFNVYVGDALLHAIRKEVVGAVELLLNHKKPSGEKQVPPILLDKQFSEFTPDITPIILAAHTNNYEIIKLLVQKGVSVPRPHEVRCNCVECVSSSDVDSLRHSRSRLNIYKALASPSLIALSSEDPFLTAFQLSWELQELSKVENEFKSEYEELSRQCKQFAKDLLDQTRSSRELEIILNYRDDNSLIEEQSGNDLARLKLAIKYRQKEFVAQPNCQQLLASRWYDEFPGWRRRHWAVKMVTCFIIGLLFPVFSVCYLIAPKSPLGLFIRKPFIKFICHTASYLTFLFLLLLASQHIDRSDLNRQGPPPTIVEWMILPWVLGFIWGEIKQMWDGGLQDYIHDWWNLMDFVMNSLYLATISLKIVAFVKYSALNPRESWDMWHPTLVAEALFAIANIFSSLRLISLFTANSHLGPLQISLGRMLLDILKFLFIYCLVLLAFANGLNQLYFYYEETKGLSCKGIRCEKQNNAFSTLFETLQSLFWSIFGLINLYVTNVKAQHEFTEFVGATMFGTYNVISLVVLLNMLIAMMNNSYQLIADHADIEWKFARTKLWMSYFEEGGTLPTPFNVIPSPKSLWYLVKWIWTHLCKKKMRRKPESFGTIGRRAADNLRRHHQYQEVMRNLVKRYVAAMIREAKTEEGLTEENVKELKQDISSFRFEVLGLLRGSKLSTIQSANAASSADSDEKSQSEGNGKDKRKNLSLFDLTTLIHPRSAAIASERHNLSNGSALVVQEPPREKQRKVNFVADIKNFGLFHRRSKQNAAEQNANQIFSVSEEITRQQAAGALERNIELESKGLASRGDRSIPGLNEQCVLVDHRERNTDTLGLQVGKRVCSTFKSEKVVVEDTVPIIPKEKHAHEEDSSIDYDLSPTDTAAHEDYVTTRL
Briefly: SAR Analysis for the identification of selective inhibits of the transient receptor potential cation channel C4 (TRPC4): Automated Electrophysiology_2. [Related pubchem assays (depositor defined):AID2256]. Type of experiment: functional.

The target in experiment [17] is T4, Short transient receptor potential channel 4. The experiment is described as follows: mouse TRPC4 block via Gq-coupled stimulation – cell-based, acetylcholine stimulus, HEK293 TRPC4, Fluo-4, SAR follow-up (AID 492996). It is filed as functional.
For experiment [18], the target named is Short transient receptor potential channel 6 (Mus musculus, UniProt Q61143). The experiment is described as follows: mouse TRPC6 channel blockers, concentration series – HEK293 cells, membrane potential dye, IC50, selectivity assay for selective TRPC4 inhibitor project, dose response (AID 492987). Type of experiment: functional, cell-based.
Short transient receptor potential channel 6, sequence (Q61143 whole entry): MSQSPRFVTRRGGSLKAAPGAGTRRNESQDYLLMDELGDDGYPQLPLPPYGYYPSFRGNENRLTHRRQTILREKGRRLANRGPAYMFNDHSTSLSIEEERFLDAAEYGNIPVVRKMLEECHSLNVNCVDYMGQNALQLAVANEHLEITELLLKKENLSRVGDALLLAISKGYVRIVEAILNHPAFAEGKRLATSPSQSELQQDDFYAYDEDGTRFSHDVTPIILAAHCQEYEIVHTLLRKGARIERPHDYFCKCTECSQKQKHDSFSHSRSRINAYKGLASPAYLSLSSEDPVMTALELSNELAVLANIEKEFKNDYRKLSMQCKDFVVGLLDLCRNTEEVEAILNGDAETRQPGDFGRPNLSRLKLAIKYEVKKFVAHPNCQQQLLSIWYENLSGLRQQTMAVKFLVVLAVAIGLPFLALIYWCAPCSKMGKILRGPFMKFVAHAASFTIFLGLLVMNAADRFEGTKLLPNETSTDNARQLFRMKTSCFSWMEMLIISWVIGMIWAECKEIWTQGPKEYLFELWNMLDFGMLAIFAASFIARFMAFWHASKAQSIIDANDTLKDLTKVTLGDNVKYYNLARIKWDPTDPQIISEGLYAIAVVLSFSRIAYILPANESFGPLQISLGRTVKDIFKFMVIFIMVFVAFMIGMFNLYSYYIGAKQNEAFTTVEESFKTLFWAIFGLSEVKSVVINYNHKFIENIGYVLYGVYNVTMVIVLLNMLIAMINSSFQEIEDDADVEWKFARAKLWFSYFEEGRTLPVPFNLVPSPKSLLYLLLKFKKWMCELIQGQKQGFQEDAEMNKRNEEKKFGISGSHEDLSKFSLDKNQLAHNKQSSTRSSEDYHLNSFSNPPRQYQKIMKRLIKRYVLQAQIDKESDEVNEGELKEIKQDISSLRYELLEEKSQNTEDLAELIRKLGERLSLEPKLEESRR
Experiment [19] concerns the target T4, Short transient receptor potential channel 4. The experiment is described as follows: potency of mouse TRPC4 calcium flux blockers – cell-based, HEK293 TRPC4/mu-opioid, DAMGO stimulus, Fluo-4, dose response (AID 492994). It is filed as functional. (Calcium assays in cells follow changes in intracellular calcium, usually with a dye or a luminescent sensor.)

Beta Lactamase, sequence (Q932Y6 whole entry): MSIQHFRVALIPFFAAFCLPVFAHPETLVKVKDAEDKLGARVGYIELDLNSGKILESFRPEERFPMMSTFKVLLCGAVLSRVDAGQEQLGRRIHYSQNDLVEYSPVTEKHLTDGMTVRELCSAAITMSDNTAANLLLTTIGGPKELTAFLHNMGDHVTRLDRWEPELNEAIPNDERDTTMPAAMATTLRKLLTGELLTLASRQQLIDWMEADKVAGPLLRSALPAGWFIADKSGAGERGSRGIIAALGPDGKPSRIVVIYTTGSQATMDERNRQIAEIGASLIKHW

Consider `Cc1cccc(C)c1NC(=O)C1CC2CCC1C2` (centres undefined), for which the EC50 is 3.24 µM (active) in [1], 13.4 µM (active) in experiment [2] and 4.66 µM (active) in experiment [3].

Take `O=[N+]([O-])c1cnc(Sc2ccncn2)s1`: the EC50 is 2.21 µM (active) with BJ [4]; > 40 µM (inactive) on Beta-galactosidase; 4.12 µM (active) in experiment [5]; 8.38 µM (active) in the experiment on BJ [6]; 4.97 µM (inconclusive) in the experiment with BJ [10]; 5.64 µM (active) in [11]. Moreover, the IC50 in [7] is 5.67 µM (active); in [8], 1.72 µM (not active); in experiment [9], 0.86 µM (active); in experiment [12], 15 µM (not active); with CHO, 1.29 µM (active); at Beta Lactamase, > 49.7 µM (inactive). Further, the values for the AC50 (in experiment [13]; in the experiment on INS1 [14]) were 1.49 µM (active) and 4.35 µM (active), respectively.

`Cc1ccc(S(=O)(=O)Nc2cc(SCC(=O)O)c(O)c3ccccc23)cc1[N+](=O)[O-]`: the IC50 at Hexokinase-1 is 59.8 µM (inactive); on Hexokinase HKDC1, 11.4 µM (active).

Take `COc1ccc(S(=O)(=O)N(C)C[C@@H]2Oc3c(NC(=O)c4ccncc4)cccc3C(=O)N([C@@H](C)CO)C[C@H]2C)cc1`: in the experiment on INS1 [15], the AC50 was 32.7 µM (active).

In the case of `Cc1cc(N2CCCCCC2)nc2ccccc12`, the IC50 in experiment [16] is 1.96 µM (active); in experiment [17], 9.55 µM (active); in experiment [18], 9.74 µM (active); in [19] it was 1.5 µM (active).
